pIC50: −log10 of the molar value.
Tests used:
[1] = biological target: T1, HCV polymerase (Hepatitis C virus genotype 1b, UniProt Q9WMX2); assay: Polymerase assay of Biological Example 1 (IC50 values of Table 3); format: biochemical; settings: IC50 values of Table 3, polymerase assay of Biological Example 1; read-out: NS5B-enzyme3
T1 construct: (His)6 (C); made in house; host or cells: XL-1 cells (E. coli, by own knowledge)

[2] = test system: HCV replicon I389luc-ubi-neo/NS3-3′/ET in ET (Huh-lucubineo-ET) cells; assay: Replicon assay (Biological Example 2), luciferase readout; format: cell-based; settings: Hepatitis C virus
Procedure, shortened: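 EC50 values come from Hill fits of % inhibition of replicon-driven firefly luciferase, relative to no-compound wells. Compounds were serially diluted (10 points, 3-fold, 0.1 nM–50 μM final, 0.5% DMSO) onto ET replicon cells and read after 48 h.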

[3] = ET cells, luciferase activity 48 hours after compound

Structure (SMILES) | pIC50 [1] | pIC50 [2, 3] | pIC50 ([2]; between 100 nM and 5.0 uM)
O=C(O)c1sc(-c2ccccc2)cc1N1C(=O)CN(S(=O)(=O)C2CCN(C(=O)OCc3ccccc3)CC2)CC1C1CCCCC1 (centres unmarked) [Compound 112, 4-[4-(2-Carboxy-5-phenyl-thiophen-3-yl)-3-cyclohexyl-5-oxo-piperazine-1-sulfonyl]-piperidine-1-carboxylic acid benzyl ester] | 6.76 | ≤ 5.30 | 
Cc1ccc(-c2cc(N3C(=O)CN(S(=O)(=O)c4ccc(N5CCC[C@H]5C)nc4)C[C@H]3C3CCCCC3)c(C(=O)O)s2)cc1 [Compound 180, 3-{(R)-2-Cyclohexyl-4-[6-((R)-2-methyl-pyrrolidin-1-yl)-pyridine-3-sulfonyl]-6-oxo-piperazin-1-yl}-5-p-tolyl-thiophene-2-carboxylic acid] | > 9.70 | ≥ 7.00 | 
CC(C)(C)C#Cc1cc(N2C(=O)[C@H](CCCO)OC[C@H]2C2CCCCC2)c(C(=O)O)s1 (single isomer, unassigned) [Compound 2] | 7.46 | ≥ 7.00 | 
O=C(O)CCS(=O)(=O)N1CC(=O)N(c2cc(-c3ccccc3)sc2C(=O)O)C(C2CCCCC2)C1 (centres unmarked) [Compound 41, 3-[4-(2-Carboxy-ethanesulfonyl)-2-cyclohexyl-6-oxo-piperazin-1-yl]-5-phenyl-thiophene-2-carboxylic acid] | 6.66 | ≤ 5.30 | 
O=C(O)c1sc(-c2ccc(F)cc2)cc1N1C(=O)CN(S(=O)(=O)c2ccc(N3CCC(F)(F)C3)nc2)C[C@H]1C1CCCCC1 [Compound 286, 3-{(R)-2-Cyclohexyl-4-[6-(3,3-difluoro-pyrrolidin-1-yl)-pyridine-3-sulfonyl]-6-oxo-piperazin-1-yl}-5-(4-fluoro-phenyl)-thiophene-2-carboxylic acid] | 9.00 | ≥ 7.00 | 
O=C(O)c1sc(-c2ccccc2)cc1N1C(=O)CN(S(=O)(=O)c2ccc(N3CCCC3)nc2)C[C@@H]1C1CCCCC1 [Compound 136, 3-[(S)-2-Cyclohexyl-6-oxo-4-(6-pyrrolidin-1-yl-pyridine-3-sulfonyl)-piperazin-1-yl]-5-phenyl-thiophene-2-carboxylic acid] | 6.59 |  | 5.30 to 7.00
C[C@H]1[C@@H](C2CCCCC2)N(c2cc(C#CC(C)(C)C)sc2C(=O)O)C(=O)N1C [Compound 237, 3-((4S,5R)-5-Cyclohexyl-3,4-dimethyl-2-oxo-imidazolidin-1-yl)-5-(3,3-dimethyl-but-1-ynyl)-thiophene-2-carboxylic acid] | 7.38 |  | 5.30 to 7.00
NCC1CCN(c2ccc(S(=O)(=O)N3CC(=O)N(c4cc(-c5ccccc5)sc4C(=O)O)[C@H](C4CCCCC4)C3)cn2)CC1 [Compound 143, 3-[(R)-4-(4-Aminomethyl-3,4,5,6-tetrahydro-2H-[1,2′]bipyridinyl-5′-sulfonyl)-2-cyclohexyl-6-oxo-piperazin-1-yl]-5-phenyl-thiophene-2-carboxylic acid] | 8.72 | ≥ 7.00 | 
N[C@H]1CCN(c2ccc(S(=O)(=O)N3CC(=O)N(c4cc(-c5ccccc5)sc4C(=O)O)[C@H](C4CCCCC4)C3)cn2)C1 [Compound 144, 3-{(R)-4-[6-((S)-3-Amino-pyrrolidin-1-yl)-pyridine-3-sulfonyl]-2-cyclohexyl-6-oxo-piperazin-1-yl}-5-phenyl-thiophene-2-carboxylic acid] | 8.70 |  | 5.30 to 7.00
Cc1ccc(-c2cc(N3C(=O)CN(S(=O)(=O)c4cnn(CC(C)C)c4)C[C@H]3C3CCCCC3)c(C(=O)O)s2)cc1 [Compound 301, 3-[(R)-2-Cyclohexyl-4-(1-isobutyl-1H-pyrazole-4-sulfonyl)-6-oxo-piperazin-1-yl]-5-p-tolyl-thiophene-2-carboxylic acid] | 8.40 | ≥ 7.00 | 
Cn1ccc2cccc(S(=O)(=O)N3CC(=O)N(c4cc(-c5ccccc5)sc4C(=O)O)C(C4CCCCC4)C3)c21 (centres unmarked) [Compound 57, 3-[2-Cyclohexyl-4-(1-methyl-1H-indole-7-sulfonyl)-6-oxo-piperazin-1-yl]-5-phenyl-thiophene-2-carboxylic acid] | 6.59 | ≤ 5.30 | 
CCc1ccc(S(=O)(=O)N2CC(=O)N(c3cc(-c4ccccc4)sc3C(=O)O)C(C3CCCCC3)C2)cc1 (centres unmarked) [Compound 56, 3-[2-Cyclohexyl-4-(4-ethyl-benzenesulfonyl)-6-oxo-piperazin-1-yl]-5-phenyl-thiophene-2-carboxylic acid] | 8.15 |  | 5.30 to 7.00
O=C(O)c1sc(-c2ccccc2)cc1N1C(=O)CN(S(=O)(=O)c2ccc(N3CCOCC3)nc2)C[C@H]1C1CCCCC1 [Compound 184, 3-[(R)-2-Cyclohexyl-4-(6-morpholin-4-yl-pyridine-3-sulfonyl)-6-oxo-piperazin-1-yl]-5-phenyl-thiophene-2-carboxylic acid] | 8.77 | ≥ 7.00 | 
COc1ccc(S(=O)(=O)N2CC(=O)N(c3cc(-c4ccccc4)sc3C(=O)O)C(C3CCCCC3)C2)cc1 (centres unmarked) [Compound 103, 3-[2-Cyclohexyl-4-(4-methoxy-benzenesulfonyl)-6-oxo-piperazin-1-yl]-5-phenyl-thiophene-2-carboxylic acid] | 8.70 |  | 5.30 to 7.00
CC(C)c1ccc(S(=O)(=O)N2CC(=O)N(c3cc(C#CC(C)(C)C)sc3C(=O)O)[C@H](C3CCCCC3)C2)cc1 [Compound 176, 3-[(R)-2-Cyclohexyl-4-(4-isopropyl-benzenesulfonyl)-6-oxo-piperazin-1-yl]-5-(3,3-dimethyl-but-1-ynyl)-thiophene-2-carboxylic acid] | 5.85 | ≥ 7.00 | 
O=C(O)c1sc(-c2cccc(F)c2)cc1N1C(=O)CCCC1C1CCCCC1 (centres unmarked) [Compound 48, 3-(2-Cyclohexyl-6-oxo-piperidin-1-yl)-5-(3-fluoro-phenyl)-thiophene-2-carboxylic acid] | 6.73 |  | 5.30 to 7.00
O=C(N[C@H]1CC(=O)N(c2cc(-c3ccccc3)sc2C(=O)O)[C@H](C2CCCCC2)C1)c1ccccc1 [Compound 24, 3-((2S,4R)-4-Benzoylamino-2-cyclohexyl-6-oxo-piperidin-1-yl)-5-phenyl-thiophene-2-carboxylic acid] | 7.35 |  | 5.30 to 7.00
O=C(O)c1sc(-c2ccccc2)cc1N1C(=O)CCCC1C1CCCCC1 (centres unmarked) [Compound 4, 3-(2-Cyclohexyl-6-oxo-piperidin-1-yl)-5-phenyl-thiophene-2-carboxylic acid] | 7.14 |  | 5.30 to 7.00
O=C(Cc1ccccc1)NC1CC(=O)N(c2cc(-c3ccccc3)sc2C(=O)O)C(C2CCCCC2)C1 (centres unmarked) [Compound 20, 3-(2-Cyclohexyl-6-oxo-4-phenylacetylamino-piperidin-1-yl)-5-phenyl-thiophene-2-carboxylic acid] | 6.89 | ≤ 5.30 | 
O=C(O)c1sc(-c2ccccc2)cc1N1C(=O)COCC1C1CCCCC1 (centres unmarked) [Compound 13, 3-(3-Cyclohexyl-5-oxo-morphoIin-4-yl)-5-phenyl-thiophene-2-carboxylic acid] | 7.10 |  | 5.30 to 7.00
O=C(O)c1sc(-c2ccccc2)cc1N1C(=O)CN(S(=O)(=O)c2ccc(N3CCC(O)CC3)nc2)CC1C1CCCCC1 (centres unmarked) [Compound 93, 3-[2-Cyclohexyl-4-(4-hydroxy-3,4,5,6-tetrahydro-2H-[1,2′]bipyridinyl-5′-sulfonyl)-6-oxo-piperazin-1-yl]-5-phenyl-thiophene-2-carboxylic acid] | 8.40 | ≥ 7.00 | 
C[C@@H](O)CC[C@]1(C)OC[C@@H](C2CCCCC2)N(c2cc(C#CC(C)(C)C)sc2C(=O)O)C1=O [Compound 320, 3-[(2S,5R)-5-Cyclohexyl-2-((R)-3-hydroxy-butyl)-2-methyl-3-oxo-morpholin-4-yl]-5-(3,3-dimethyl-but-1-ynyl)-thiophene-2-carboxylic acid] | 8.22 | ≥ 7.00 | 
O=C(O)c1sc(-c2ccccc2)cc1N1C(=O)CN(Cc2ccc(Cl)nc2)C[C@H]1C1CCCCC1 [Compound 267, 3-[(R)-4-(6-Chloro-pyridin-3-ylmethyl)-2-cyclohexyl-6-oxo-piperazin-1-yl]-5-phenyl-thiophene-2-carboxylic acid] | 7.19 |  | 5.30 to 7.00
CC(C)(C)C#Cc1cc(N2C(=O)C(CO)OC[C@H]2C2CCCCC2)c(C(=O)O)s1 (stereo partly drawn) [Compound 329, 3-((R)-5-Cyclohexyl-2-hydroxymethyl-3-oxo-morpholin-4-yl)-5-(3,3-dimethyl-but-1-ynyl)-thiophene-2-carboxylic acid] | 8.30 | ≥ 7.00 | 
CC(C)(C)C#Cc1cc(N2C(=O)COC[C@H]2C2CCCCC2)c(C(=O)NS(C)(=O)=O)s1 [Compound 309, N-[3-((R)-3-Cyclohexyl-5-oxo-morpholin-4-yl)-5-(3,3-dimethyl-but-1-ynyl)-thiophene-2-carbonyl]-methanesulfonamide] | 7.27 |  | 5.30 to 7.00
Cc1ccc(-c2cc(N3C(=O)CCCC3C3CCCCC3)c(C(=O)O)s2)cc1 (centres unmarked) [Compound 71, 3-(2-Cyclohexyl-6-oxo-piperidin-1-yl)-5-p-tolyl-thiophene-2-carboxylic acid] | 7.28 |  | 5.30 to 7.00
C[C@@H]1CCC[C@H](C)N1c1ccc(S(=O)(=O)N2CC(=O)N(c3cc(-c4ccccc4)sc3C(=O)O)C(C3CCCCC3)C2)cn1 (stereo partly drawn) [Compound 126, 3-[2-Cyclohexyl-4-((2S,6R)-2,6-dimethyl-3,4,5,6-tetrahydro-2H-[1,2′]bipyridinyl-5′-sulfonyl)-6-oxo-piperazin-1-yl]-5-phenyl-thiophene-2-carboxylic acid] | 7.96 | ≥ 7.00 | 
O=C(O)c1ccc(-c2ccc(S(=O)(=O)N3CC(=O)N(c4cc(-c5ccccc5)sc4C(=O)O)[C@H](C4CCCCC4)C3)cn2)s1 [Compound 210, 3-{(R)-4-[6-(5-Carboxy-thiophen-2-yl)-pyridine-3-sulfonyl]-2-cyclohexyl-6-oxo-piperazin-1-yl}-5-phenyl-thiophene-2-carboxylic acid] | 8.52 | ≤ 5.30 | 

— patent US9498483B2, “2,3,5-trisubstituted thiophene compounds and uses thereof” (priority 2010, dated 2016)
